Like-named read-outs stand apart in the source and are kept apart here.
Test: Solubility of miconazole nitrate in several common solvents
Type: physicochemical
From the text: The imidazole ethers in general and the miconazoles in particular have very low solubilities in most solvents suitable for use in topical pharmaceutical compositions such as in the treatment of fungal skin infections. The solubility of miconazole nitrate, for example, in several common solvents has been determined to be as follows: […]

Clc1ccc(COC(Cn2ccnc2)c2ccc(Cl)cc2Cl)c(Cl)c1.O=[N+]([O-])O (stereo not drawn) [miconazole nitrate, 1-[2,4-dichloro-β-(2,4-dichlorobenzyloxy)-phenethyl] imidazole nitrate]
solubility (Solvent: 40% PG/water, read-out: solubility): 1300 µg/mL
solubility (Solvent: HCl 0.1 N, read-out: solubility): 500 µg/mL
solubility (Solvent: NaOH): Insoluble
solubility (Solvent: Water, read-out: solubility): 300 µg/mL
solubility (organic solvent or mixture, Solvent: 2-Propanol, read-out: solubility): 1300 µg/mL
solubility (organic solvent or mixture, Solvent: Acetone, read-out: solubility): 3400 µg/mL
solubility (organic solvent or mixture, Solvent: Benzene, read-out: solubility): 500 µg/mL
solubility (organic solvent or mixture, Solvent: Chloroform, read-out: solubility): 3100 µg/mL
solubility (organic solvent or mixture, Solvent: Ethanol, read-out: solubility): 7600 µg/mL
solubility (organic solvent or mixture, Solvent: Ethyl Acetate, read-out: solubility): 700 µg/mL
solubility (organic solvent or mixture, Solvent: Hexane, read-out: solubility): 300 µg/mL
solubility (organic solvent or mixture, Solvent: Methanol, read-out: solubility): 15000 µg/mL
solubility (organic solvent or mixture, Solvent: Methyl Isobutylketone, read-out: solubility): 400 µg/mL
solubility (organic solvent or mixture, Solvent: PEG 300, read-out: solubility): 1300 µg/mL
solubility (organic solvent or mixture, Solvent: Propylene Glycol, read-out: solubility): 1500 µg/mL
solubility (organic solvent or mixture, Solvent: Tetrahydrofuran, read-out: solubility): 2000 µg/mL
